According to publication PMC7926640, “Synthesis, Neuroprotection, and Antioxidant Activity of 1,1′-Biphenylnitrones as α-Phenyl-N-tert-butylnitrone Analogues in In Vitro Ischemia Models” (Molecules, 2021):

Each compound was assayed against T1, soybean lipoxygenase (LOX) (Glycine max, UniProt P08170) (assay: soybean LOX inhibition, linoleate oxidation monitored at […] nm).
T1 construct: gene LOX1.1
T1 sequence (P08170 1-839): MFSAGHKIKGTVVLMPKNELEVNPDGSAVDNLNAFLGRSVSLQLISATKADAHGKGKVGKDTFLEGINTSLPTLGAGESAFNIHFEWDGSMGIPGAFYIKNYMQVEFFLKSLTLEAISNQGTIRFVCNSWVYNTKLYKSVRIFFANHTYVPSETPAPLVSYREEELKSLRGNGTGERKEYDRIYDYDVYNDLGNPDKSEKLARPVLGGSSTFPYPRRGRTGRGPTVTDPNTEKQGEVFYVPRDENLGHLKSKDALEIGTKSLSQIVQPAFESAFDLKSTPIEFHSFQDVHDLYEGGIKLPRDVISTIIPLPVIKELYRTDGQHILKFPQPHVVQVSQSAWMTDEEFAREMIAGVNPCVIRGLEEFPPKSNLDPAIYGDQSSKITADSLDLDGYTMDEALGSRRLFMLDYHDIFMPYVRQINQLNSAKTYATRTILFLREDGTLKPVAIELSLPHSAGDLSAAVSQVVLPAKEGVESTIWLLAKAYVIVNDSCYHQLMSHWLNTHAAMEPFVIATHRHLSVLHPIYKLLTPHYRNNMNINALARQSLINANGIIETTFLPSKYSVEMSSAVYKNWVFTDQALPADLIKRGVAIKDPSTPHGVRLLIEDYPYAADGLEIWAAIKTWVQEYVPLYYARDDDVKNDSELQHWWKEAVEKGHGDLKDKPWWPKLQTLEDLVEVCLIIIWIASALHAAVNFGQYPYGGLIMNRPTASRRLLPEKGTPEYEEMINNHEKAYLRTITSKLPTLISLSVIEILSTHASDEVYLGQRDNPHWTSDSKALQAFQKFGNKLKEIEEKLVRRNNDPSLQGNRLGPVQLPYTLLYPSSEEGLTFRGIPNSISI
Assay type: biochemical

Compound	IC50
C/[N+]([O-])=C/c1ccc(-c2ccccc2)cc1 [compound 1, (Z)-1-([1,1′-Biphenyl]-4-yl)-N-methylmethanimine oxide]	100 µM
[O-]/[N+](=C\c1ccc(-c2ccccc2)cc1)Cc1ccccc1 [compound 3, (Z)-1-([1,1′-Biphenyl]-4-yl)-N-benzylmethanimine oxide]	57.5 µM
CC(C)(C)/[N+]([O-])=C/c1ccc(-c2ccc(/C=[N+](\[O-])C(C)(C)C)cc2)cc1 [compound 5, (1Z,1′Z)-1,1′-([1,1′-Biphenyl]-4,4′-diyl)bis(N-tert-butylmethanimineoxide)]	100 µM
